Assay results as given in patent US10550105B2 (Ribon Therapeutics Inc., priority 2018, dated 2020).

Legend:
TUHR10TKB = assay: Growth inhibition of cancer cell lines, 144 hours (CellTiter-Glo); assay type: cell-based; settings: renal cell carcinoma
Method: (§1) Example C: Inhibition of Cancer Cell Growth by Treatment with PARP7 Inhibitors
(§2) Table A-2 and Table A-3 (below) represents the concentration that causes 50% growth inhibition (GI50) in a panel of cancer cell lines with Compound 18B and Compound 561. Cells were plated into 384-well plates at a pre-specified density in fetal bovine serum-containing media. Cells were treated with compound or vehicle (DMSO) 24 hrs later, and a day zero plate was collected for analysis. Test compound plates were incubated continuously for 72 hrs (Table A-2) or 144 hours (Table A-3) cell growth was assessed using a luminescent cell viability assay (CellTiter-Glo, Promega). The GI50was determined by correcting for the cell count at time zero (time of treatment) and plotting data as percent growth relative to vehicle-treated cells.

MCAS = assay: as above; assay type: cell-based; settings: ovarian mucinous cystadenocarcinoma
Method: as §1, §2

HPAF-II = assay: as above; assay type: cell-based; settings: Homo sapiens, pancreatic adenocarcinoma
Method: as §1, §2

CFPAC-1 = assay: as above; assay type: cell-based; settings: Homo sapiens, pancreatic ductal adenocarcinoma
Method: as §1, §2

NCI-H2009 = assay: as above; assay type: cell-based; settings: Homo sapiens, lung adenocarcinoma
Method: as §1, §2

[1] = system: human NCI-H1373 lung cancer xenograft; assay: Tumor growth in human NCI-H1373 lung cancer xenograft (FIG. 7A); assay type: in vivo; settings: once daily administration

In the case of C[C@@H](COCCC(=O)N1CCN(c2ncc(C(F)(F)F)cn2)CC1)Nc1cn[nH]c(=O)c1C(F)(F)F [Example 561, 5-[[(2S)-1-(3-oxo-3-[4-[5-(trifluoromethyl)pyrimidin-2-yl]piperazin-1-yl]propoxy)propan-2-yl]amino]-4-(trifluoromethyl)-2,3-dihydropyridazin-3-one], the GI50 (TUHR10TKB) is reported as < 100 nM, the GI50 (MCAS) is reported as ≥ 1000 nM and the GI50 (HPAF-II) is reported as ≥ 1000 nM. For the same compound, the GI50 (CFPAC-1) was 100 to 1000 nM, the GI50 (NCI-H2009) was ≥ 1000 nM and the tumor growth [1] was “significantly reduces tumor growth”.
